Columns and labels:
[1] = system: Phospho-Rb (Ser807/811) in MCF7 cells; test: Phospho-Rb expression inhibition in MCF7 cells quantified by in cell Western; assay type: cell-based, human; settings: Homo sapiens, MCF7, 24 h, 24 hours, in cell Western, read-out: MCF7 pRb IC50
Protocol: MCF7 cells were obtained from American Type Culture Collection (ATCC, HTB-22). MCF7 cells were plated in 96-well plates (VWR #10062-900, or Coming #3904) in 90 μL culture medium at a density of 20,000 cells/well in the DMEM growth medium containing 10%/FBS and 1% Penicillin Streptomycin, and then incubated at 37° C. overnight. The following day, the test compound was administered to the cells by using 1000× compound stock solution prepared in DMSO at various concentrations. 1000× compound stock solution was first diluted in culturing medium to 10×, then 10 μL compound medium was added to each well in the cell plates. After administration of the compound, the cells were then incubated at 37° C. for 24 h. Upon completion, the cells were washed with PBS briefly. 150 μL/well of 4% formaldehyde was added and the plates were incubated at room temperature for 20 min. The cells were washed with PBS briefly, and permeabilized with 150 µL/well of ice cold 100% methanol for 10 min. The cells were washed with PBS briefly and blocked with 100 µL/well LI-COR blocking buffer for 1 h at room temperature with gentle shaking. The cells were incubated overnight at 4° C. with 50 μL primary antibody rabbit anti-Phospho-Rb (Ser807/811) (1: 500, Cell Signaling, #8516) and anti-Rb (1:200, Santa Cruz, sc-73598) diluted in Intercept Blocking Buffer (LI-COR, #927-60001) containing 0.1% Tween 20. The next day, the cells were washed with 200 μL PBS containing 0.1% Tween 20, 5×5 mins at room temperature with gentle shaking, and incubated with 50 μL secondary antibody, IRDye® 800CW Goat anti-Rabbit IgG (1:1000, LI-COR, #926-32211) and FRDye® 680RD Goat anti-Mouse IgG (1:1000, LI-COR, #926-68070), in LI-COR […] blocking buffer with 0.2% Tween 20 for 1 h at room temperature with gentle shaking. The cells were washed with 200 μL PBS containing 0.1% Tween 20, 5×5 min at room temperature with gentle shaking. The cells were washed with PBS for 5 mins. 100 μL fresh PBS was added to each well and the plates were imaged on a LI-COR Odyssey CLX plate reader.
MCF7 cells were obtained from American Type Culture Collection (ATCC, HTB-22). SW1573-CDK6 KO and SW1573-CDK4 KO cells were generated by the CRISPR-Cas9 technology. All cells were plated in 96-well plates (VWR #10062-900, or Corning #3904) in 90 uL culture medium at a density of 20,000 cells/well in the respective growth medium containing 10% FBS and 1% Penicillin Streptomycin, and then incubated at 37° C. overnight. The following day, the test compound was administered to the cells by using 1000× compound stock solution prepared in DMSO at various concentrations. 1000× compound stock solution was first diluted in culturing medium to 10×, then 10 uL compound medium was added to each well in the cell plates. After administration of the compound, the cells were then incubated at 37° C. for 24 hours. Upon completion, the cells were washed with PBS briefly. 150 uL/well of 4% formaldehyde was added and the plates were incubated at room temperature for 20 mins. The cells were washed with PBS briefly, and permeabilized with 150 uL/well of ice cold 100% methanol for 10 mins. The cells were washed with PBS briefly and blocked with 100 uL/well LI-COR blocking buffer for 1 hr at room temperature with gentle shaking. The cells were incubated overnight at 4° C. with 50 uL primary antibody rabbit anti-Phospho-Rb (Ser807/811) (1: 500, Cell Signaling, #8516) and anti-Rb (1:200, Santa Cruz, sc-73598) diluted in Intercept Blocking Buffer (LI-COR, #927-60001) containing 0.1% Tween 20. The next day, the cells were washed with 200 uL PBS containing 0.1% Tween 20, 5×5 mins at room temperature with gentle shaking, and incubated with 50 uL secondary antibody, IRDye® 800CW Goat anti-Rabbit IgG (1:1000, LI-COR, #926-32211) and IRDye®680RD Goat anti-Mouse IgG (1:1000, LI-COR, #926-68070), in LI-COR blocking buffer with 0.2% Tween 20 for 1 hr at room temperature with gentle shaking. […]

22RV1 cells = test: Cell growth inhibition of 22RV1 cells (CellTiter-Glo); assay type: cell-based; settings: Homo sapiens, 22Rv1, 120 h, 5 days, CellTiter-Glo, read-out: 22RV1 Cell Growh GI50
Protocol: For cell growth assay, 22RV1 (ATCC, CRL-2505) cells were seeded in 96-well plates at 1000 cells/well in 90 μl of RPMI1640 growth medium containing 20% FBS and 1% Penicillin Streptomycin, and then incubated at 37° C. overnight. The following day, the test compound was administered to the cells by using 1000× compound stock solution prepared in DMSO at various concentrations. 1000× compound stock solution was first diluted in culturing medium to 10×, then 10 uL compound medium was added to each well in the cell plates. After administration of the compound, the cells were then incubated at 37° C. for 5 days. Upon completion, the plates were equilibrated at room temperature for approximately 10 min. 100 μl of CellTiter-Glo® Reagent (Promega) was added to each well. The plates were then incubated at room temperature for 10 min and luminescence was recorded by EnSpire plate reader (PerkinElmer).
22RV1 cells were obtained from American Type Culture Collection (ATCC, CRL-2505). 22RV1 cells were seeded in 96-well plates at 1000 cells/well in 90 μL of RPMI1640 growth medium containing 10% FBS and 1% Penicillin Streptomycin, and then incubated at 37° C. overnight. The following day, the test compound was administered to the cells by using 1000× compound stock solution prepared in DMSO at various concentrations. […], then 10 uL compound medium was added to each well in the cell plates. After administration of the compound, the cells were then incubated at […] for 5 days. Upon completion, the plates were equilibrated at room temperature for approximately 10 minutes. 100 μL of CellTiter-Glo® Reagent (Promega) was added to each well. The plates were then incubated at room temperature for 10 minutes and luminescence was recorded by EnSpire plate reader (PerkinElmer).

IC50 [1] | GI50 (22RV1 cells) | SMILES
150 to 1000 nM | 450 to 3000 nM | Cc1c(CN2CC(O)C2)n(C(C)C)c2cc(-c3nc(N[C@@H]4C[C@H]5CO[C@H](O5)[C@H]4O)ncc3F)ccc2c1=O [Compound 198, 7-(5-fluoro-2-(((1S,3R,4S,5R)-4-hydroxy-6,8-dioxabicyclo[3.2.1]octan-3-yl)amino)pyrimidin-4-yl)-2-((3-hydroxyazetidin-1-yl)methyl)-1-isopropyl-3-methylquinolin-4(1H)-one]
40 to 150 nM | ≤ 120 nM | Cc1c(CN2CC[C@H](O)C2)n(C(C)C)c2cc(-c3nc(N[C@@H]4C[C@H]5CO[C@H](O5)[C@H]4O)ncc3F)ccc2c1=O [Compound 207, 7-(5-fluoro-2-(((1S,3R,4S,5R)-4-hydroxy-6,8-dioxabicyclo[3.2.1]octan-3-yl)amino)pyrimidin-4-yl)-2-(((S)-3-hydroxypyrrolidin-1-yl)methyl)-1-isopropyl-3-methylquinolin-4(1H)-one]
≤ 40 nM | ≤ 120 nM | Cc1c(-c2nc(N[C@@H]3C[C@H]4CO[C@H](O4)[C@H]3O)ncc2F)sc2c(C(C)C)cnnc12 [Compound 266, (1S,3R,4S,5R)-3-((5-fluoro-4-(4-isopropyl-7-methylthieno[3,2-c]pyridazin-6-yl)pyrimidin-2-yl)amino)-6,8-dioxabicyclo[3.2.1]octan-4-ol]
40 to 150 nM | 120 to 450 nM | CC(C)N1CCOc2c(F)cc(-c3nc(N[C@@H]4C[C@H]5CO[C@H](O5)[C@H]4O)ncc3Cl)cc21 [Compound 173, (1S,3R,4S,5R)-3-((5-chloro-4-(8-fluoro-4-isopropyl-3,4-dihydro-2H-benzo[b][1,4]oxazin-6-yl)pyrimidin-2-yl)amino)-6,8-dioxabicyclo[3.2.1]octan-4-ol]
150 to 1000 nM | > 3000 nM | CC(C)n1c(C(C)(C)O)nc2c(F)cc(-c3nc(N[C@@H]4C[C@@H]5CO[C@@H](O5)[C@H]4O)ncc3Cl)cc21 [Compound 137, (1R,3R,4S,5S)-3-((5-chloro-4-(4-fluoro-2-(2-hydroxypropan-2-yl)-1-isopropyl-1H-benzo[d]imidazol-6-yl)pyrimidin-2-yl)amino)-6,8-dioxabicyclo[3.2.1]octan-4-ol]
40 to 150 nM | 120 to 450 nM | Cc1c(C)n(C(C)C)c2cc(-c3nc(N[C@@H]4C[C@H]5CO[C@H](O5)[C@H]4O)ncc3F)ccc2c1=O [Compound 190, 7-(5-fluoro-2-(((1S,3R,4S,5R)-4-hydroxy-6,8-dioxabicyclo[3.2.1]octan-3-yl)amino)pyrimidin-4-yl)-1-isopropyl-2,3-dimethylquinolin-4(1H)-one]
40 to 150 nM | 120 to 450 nM | Cc1c(-c2nc(N[C@@H]3C[C@H]4CO[C@H](O4)[C@H]3O)ncc2Cl)sc2cc(C(C)(C)O)cnc12 [Compound 260, (1S,3R,4S,5R)-3-((5-chloro-4-(6-(2-hydroxypropan-2-yl)-3-methylthieno[3,2-b]pyridin-2-yl)pyrimidin-2-yl)amino)-6,8-dioxabicyclo[3.2.1]octan-4-ol]
40 to 150 nM | ≤ 120 nM | CC(C)n1c(C2(C(F)F)CC2)nc2c(F)cc(-c3nc(N[C@@H]4C[C@H]5CO[C@H](O5)[C@H]4O)ncc3Cl)cc21 [Compound 168, (1S,3R,4S,5R)-3-((5-chloro-4-(2-(1-(difluoromethyl)cyclopropyl)-4-fluoro-1-isopropyl-1H-benzo[d]imidazol-6-yl)pyrimidin-2-yl)amino)-6,8-dioxabicyclo[3.2.1]octan-4-ol]
150 to 1000 nM | 120 to 450 nM | Cc1nc2c(F)cc(-c3nc(N[C@@H]4C[C@H]5CO[C@H](O5)[C@H]4O)ncc3Cl)cc2n1[C@@H]1CCC[C@@]1(C)O [Compound 182, (1S,3R,4S,5R)-3-((5-chloro-4-(4-fluoro-1-((1R,2R)-2-hydroxy-2-methylcyclopentyl)-2-methyl-1H-benzo[d]imidazol-6-yl)pyrimidin-2-yl)amino)-6,8-dioxabicyclo[3.2.1]octan-4-ol]
40 to 150 nM | 120 to 450 nM | CC(C)n1c(CN2[C@@H](C)COC[C@@H]2C)cc(=O)c2ccc(-c3nc(N[C@@H]4C[C@H]5CO[C@H](O5)[C@H]4O)ncc3F)cc21 [Compound 209, 2-(((3S,5S)-3,5-dimethylmorpholino)methyl)-7-(5-fluoro-2-(((1S,3R,4S,5R)-4-hydroxy-6,8-dioxabicyclo[3.2.1]octan-3-yl)amino)pyrimidin-4-yl)-1-isopropylquinolin-4(1H)-one]
150 to 1000 nM | 450 to 3000 nM | CC(C)n1c(CN2CC[C@@H](F)C2)cc(=O)c2ccc(-c3nc(N[C@@H]4C[C@H]5CO[C@H](O5)[C@H]4O)ncc3F)cc21 [Compound 210, 7-(5-fluoro-2-(((1S,3R,4S,5R)-4-hydroxy-6,8-dioxabicyclo[3.2.1]octan-3-yl)amino)pyrimidin-4-yl)-2-(((R)-3-fluoropyrrolidin-1-yl)methyl)-1-isopropylquinolin-4(1H)-one]
150 to 1000 nM | > 3000 nM | CC(C)[C@@H]1COC(=O)N1c1nc2c(F)cc(-c3nc(N[C@@H]4C[C@H]5CO[C@H](O5)[C@H]4O)ncc3Cl)cc2n1C(C)C [Compound 263, (R)-3-(6-(5-chloro-2-(((1S,3R,4S,5R)-4-hydroxy-6,8-dioxabicyclo[3.2.1]octan-3-yl)amino)pyrimidin-4-yl)-4-fluoro-1-isopropyl-1H-benzo[d]imidazol-2-yl)-4-isopropyloxazolidin-2-one]
40 to 150 nM | 120 to 450 nM | COC(=O)N1CC[C@@H](c2nc3c(F)cc(-c4nc(N[C@@H]5C[C@H]6CO[C@H](O6)[C@H]5O)ncc4Cl)cc3n2C(C)C)C1 [Compound 4, methyl (R)-3-(6-(5-chloro-2-(((1S,3R,4S,5R)-4-hydroxy-6,8-dioxabicyclo[3.2.1]octan-3-yl)amino)pyrimidin-4-yl)-4-fluoro-1-isopropyl-1H-benzo[d]imidazol-2-yl)pyrrolidine-1-carboxylate]

— US20250084095A1, “Aminopyrimidine Derivatives as Cyclin-Dependent Kinase Inhibitors” (Accutar Biotechnology Inc., priority 2023, published 2025)
